In one data set the test system is MDA-MB-435. The conditions noted are these: MDA-MB-435, Melanoma; for CC50: read-out: 50% lethal concentration (LC50).
The subject of a further data set is MDA-MB-231 cells. As to the kind of experiment: Cell cycle assay, PI staining, flow cytometry. The data set is classed as cell-based. Particulars: MDA-MB-231, 24 h. As for the experimental part:
Cell proliferation is well associated with the regulation of cell cycle progression. Therefore, the effect of 1f on cell cycle distribution was evaluated by flow cytometry in PI-stained cells.
Cell cycle distribution was assessed by propidium iodide (PI) staining followed by flow cytometric analysis. Cells (3 × 10^5/well) were plated in 6-well plates and allowed to adhere for 24 h. To synchronize the cell cycle, the medium was replaced with serum-free medium for 8 h. After synchronization, cells were treated with various concentrations of compound 1f for 24 h. Following treatment, cells were harvested with 1X trypsin, washed with cold PBS, and fixed in 70% ethanol at 4 °C for 2 h. Fixed cells were washed twice with PBS, then incubated overnight in a staining solution containing RNase A (1 µL, 10 mg/mL) and PI (5 µL, 1 mg/mL) in 1X PBS. Cell cycle distribution was subsequently determined using flow cytometry.

The subject of data set [1] is MDA-MB-231 breast cancer cell line. The data set is described as follows: Annexin V-FITC/PI apoptotic assay (FACS). The data set is classed as cell-based. The conditions noted are these: MDA-MB-231, 3.33 µM. As for the experimental part: Apoptosis is considered a preventive mechanism against cancer dissemination, as it plays a crucial role in eliminating excessively proliferating and mutated cancer cells from the body. Following the administration of cytotoxic drugs as treatment for various types of cancer, apoptosis is a significant contributor to cellular death. […] We proceeded to investigate whether compound 1f triggers apoptosis or not. The MDA-MB-231 breast cancer cell line was treated with 1f for 24, 48, and 72 h. A quantitative evaluation of apoptotic activity was performed using FACS.
To evaluate the pro-apoptotic effect of compound 1f, Annexin V-FITC/PI dual staining was conducted. Cells were seeded into 12-well plates at a density of 1 × 10^5 cells per well and treated with the compound for 24, 48, and 72 h. Post-treatment, the cells were collected using 1X trypsin, including both floating and adherent cells, and centrifuged at 4000 rpm for 5 min. The resulting pellet was resuspended in 100 µL of 1X Annexin V binding buffer and stained with Annexin V-FITC, followed by a 15 min incubation in the dark at 4 °C. Cells were then washed, resuspended in fresh binding buffer, and stained with propidium iodide before immediate analysis via flow cytometry.

Data set [2] relates to MCF-10a (normal breast cells).
Protocol: (§1) These MDA-MB-231 breast cancer cells were treated with 1f at different concentrations, i.e., 0, 1.56, 3.125, 6.25, 12.5, 25, 50, 100, and 200 µM, for 72 h.
(§2) MDA-MB-231 breast cancer cells and MCF-10A normal breast epithelial cells (from ATCC, Manassas, VA, USA) were seeded into 96-well plates at a density of 4 × 10^3 cells per well. After overnight incubation at 37 °C, the cells were treated with varying concentrations of compound 1f (0, 1.56, 3.125, 6.25, 12.5, 25, 50, 100, and 200 µM) and incubated for an additional 72 h. Untreated cells served as the negative control. Subsequently, 10 µL of the MTT solution (5 mg/mL) was added to each well, and the plates were incubated for 3 h to assess cell viability. The medium was then discarded, and the absorbance was measured at 570 nm using a microplate reader (Promega GloMax, Madison, WI, USA).
The test system of data set [3] is MDA-MB-231 breast cancer cells. The data set is described as follows: MTT cell proliferation assay. The data set is classed as cell-based. The conditions noted are these: MDA-MB-231, 0-200 µM, 72 h. (In general: Tetrazolium assays rely on reduction of a dye to a coloured formazan, in cell work by metabolically active cells.)
Protocol: as §1, §2

Values joined by “and” are separate entries in the source; they are usually repeats but may differ in a detail not shown here. Identical values can stand only once. Bounds are passed on as bounds.

Take `C=C1CCC2C3(C)COC(c4cn(-c5ccccc5)nc4-c4ccccc4)OC3CCC2(C)C1CC=C1C(=O)OCC1O` (stereo not drawn) [1a]: in the data set with MDA-MB-435, it took 1.86 µM to inhibit growth by half (GI50), the Total growth inhibition (TGI) turned out to be 4.19 µM and the CC50 was determined as 9.43 µM.

With `C=C1CCC2C3(C)COC(c4cn(-c5ccccc5)nc4-c4cccc([N+](=O)[O-])c4)OC3CCC2(C)C1CC=C1C(=O)OCC1O` (stereo not drawn) [1b], in the data set on MDA-MB-435, the GI50 (usually the concentration at which growth is held to half of that of the control) stood at 3.03 µM, the Total growth inhibition (TGI) was 18.3 µM and the CC50 was over 100 µM.

In the case of `C=C1CCC2C3(C)COC(c4cn(-c5ccccc5)nc4-c4cccc(F)c4)OC3CCC2(C)C1CC=C1C(=O)OCC1O` (stereo not drawn) [1c], in the data set on MDA-MB-435, it took 1.5 µM to inhibit growth by half (GI50), the Total growth inhibition (TGI) was 3.08 µM and the CC50 worked out at 6.32 µM.

In the case of `C=C1CCC2C3(C)COC(c4cn(-c5ccccc5)nc4-c4cccc(Cl)c4)OC3CCC2(C)C1CC=C1C(=O)OCC1O` (stereo not drawn) [1d], in the data set with MDA-MB-435, the GI50 came out at 1.56 µM, the Total growth inhibition (TGI) was determined as 3.19 µM and the CC50 came to 6.49 µM.

Consider `C=C1CCC2C3(C)COC(c4cn(-c5ccccc5)nc4-c4cccc(Br)c4)OC3CCC2(C)C1CC=C1C(=O)OCC1O` (stereo not drawn) [1e], for which, in the data set on MDA-MB-435, halving of growth (GI50) required 1.72 µM, the Total growth inhibition (TGI) is 3.6 µM and the CC50 came to 7.51 µM.

As to `C=C1CCC2C3(C)COC(c4cn(-c5ccccc5)nc4-c4ccc(F)cc4)OC3CCC2(C)C1CC=C1C(=O)OCC1O` (stereo not drawn) [1f, 3,19-(N-Phenyl-3-(4-fluorophenyl)-pyrazole) Acetal of Andrographolide], in the data set with MDA-MB-231 cells (3.33 µM), the “G1 (%)” value is listed as 77.36 ± 0.69%; the “G2 (%)” value was found to be 6.94 ± 0.28%; the “S (%)” value is 14.2% and 14.4 ± 0.95%. In addition, in the data set on MDA-MB-231 cells (5.00 µM), the “G1 (%)” value is on record as 62.83 ± 1.2%; the “G2 (%)” value is on record as 4.87 ± 0.26%; the “S (%)” value is 25.2% and 26.5 ± 0.96%. Moreover, in the data set on MDA-MB-231 cells (6.66 µM), the “G1 (%)” value is 59.6% and 57.83 ± 1.2%; the “G2 (%)” value was 4.01% and 3.82 ± 0.20%; the “S (%)” value is 21.9 ± 1.03%. In addition, in data set [1] (24 h), the “apoptotic cells (total)” value is on record as “remained almost the same”. In data set [1] (48 h), the “apoptotic cells (total)” value is listed as 44%, the “early apoptosis (Q3)” value stood at 10.3% and the “late apoptosis (Q2)” value is reported as 33.0%. In data set [1] (72 h), the “apoptotic cells (total)” value was 55%, the “early apoptosis (Q3)” value is listed as 14.7% and the “late apoptosis (Q2)” value is 40.6%. In the data set with MDA-MB-435, the GI50 came out at 1.68 µM, the Total growth inhibition (TGI) was found to be 3.27 µM and the CC50 was 6.38 µM. The compound also returned a CC50 in data set [2] of 50 µM. Moreover, the “anti-proliferation activity (MTT)” value in data set [3] is “strong dose-dependent anti-proliferation activity”.

Consider `C=C1CCC2C3(C)COC(c4cn(-c5ccccc5)nc4-c4ccc(Cl)cc4)OC3CCC2(C)C1CC=C1C(=O)OCC1O` (stereo not drawn) [1g], for which, in the data set with MDA-MB-435, growth was halved (GI50) at 1.65 µM, the Total growth inhibition (TGI) was 3.28 µM and the CC50 was 6.51 µM.

Take `C=C1CCC2C3(C)COC(c4cn(-c5ccccc5)nc4-c4ccc(Br)cc4)OC3CCC2(C)C1CC=C1C(=O)OCC1O` (stereo not drawn) [1h]: in the data set with MDA-MB-435, it took 1.67 µM to inhibit growth by half (GI50), the Total growth inhibition (TGI) amounted to 3.34 µM and the CC50 is 6.67 µM.

`C=C1CCC2C3(C)COC(c4cn(-c5ccccc5)nc4-c4ccc(C)cc4)OC3CCC2(C)C1CC=C1C(=O)OCC1O` (stereo not drawn) [1i]: in the data set with MDA-MB-435, growth was halved (GI50) at 1.61 µM, the Total growth inhibition (TGI) was determined as 3.31 µM and the CC50 was determined as 6.79 µM.

`C=C1CCC2C3(C)COC(c4cn(-c5ccccc5)nc4-c4ccc(OC)cc4)OC3CCC2(C)C1CC=C1C(=O)OCC1O` (stereo not drawn) [1j]: in the data set on MDA-MB-435, the GI50 came out at 1.54 µM, the Total growth inhibition (TGI) turned out to be 3.17 µM and the CC50 came to 6.51 µM.

These data come from publication PMC12298351, “Novel 3,19-(N-Phenyl-3-(4-fluorophenyl)-pyrazole) Acetal of Andrographolide Promotes Cell Cycle Arrest and Apoptosis in MDA-MB-231 Breast Cancer Cells” (Pharmaceuticals, 2025).
